Measurements published in patent US10259781B2, “Imaging agents” (THE REGENTS OF THE UNIVERSITY OF MICHIGAN, priority 2012, dated 2019).
“Also recorded” adds a separate entry of the source.

Experiments:
Biodistribution in rats = type: in vivo, rat; conditions: for Biodistribution, Ovary / Biodistribution, Testes / Biodistribution, Uterus: n = 2
Protocol: During the development of embodiments of the technology, data were collected from bioevaluation studies of [^18F]4F-MHPG. […]
During the development of embodiments of the technology provided herein, the biodistribution of [^18F]4F-MHPG into the organs of rats was assessed. In particular, four time points (Table 3) were collected and used to derive human radiation absorbed dose estimates using the OLINDA/EXM 1.0 software package (see, e.g., Stabin et al. (2005) “OLINDA/EXM; the second-generation personal computer software for internal dose assessment in nuclear medicine”, J Nucl Med. 46: 1023-7). […] These values were entered into the Dynamic Bladder model of OLINDA/EXM, assuming a 4.0-hour void interval. Organs with the highest absorbed dose estimates included the urinary bladder wall (0.666 rad/mCi), […] (0.221 rad/mCi), small intestine (0.201 rad/mCi), and the heart wall (0.201 rad/mCi). An ‘effective dose’ of 0.091 rem/mCi was estimated for [^18F]4F-MHPG. Under United States Federal Regulations governing research with a new radiopharmaceutical (21 CFR § 361.1), the maximum allowable radiation absorbed dose to an individual organ (other than the gonads) is 5 rad. Considering the maximum estimated absorbed dose (urinary bladder wall; 0.666 rad/mCi), initial PET studies in human subjects could use a maximum of 7.5 mCi of [^18F]4F-MHPG. This would correspond to an ‘effective dose’ of 0.68 rem.

[1] = Metabolic breakdown in monkey plasma (reverse-phase HPLC of venous blood samples); type: in vivo, rhesus macaque monkey; conditions: rhesus monkeys
Protocol: In some of the microPET studies, venous blood samples (e.g., n=6) were drawn to assess the metabolic breakdown of [^18F]4F-MHPG in plasma (see Table 1). Plasma was processed for injection onto a reverse-phase HPLC system equipped with a radiation detector. The percentages of intact parent tracer and radiolabeled metabolites were determined as a function of time. In this system, [^18F]4-MHPG has a retention time Rt of approximately 11.2 minutes while the main polar radiometabolite formed has an Rt of approximately 7.9 minutes.

adrenal glands = assay: Uptake into adrenal glands, microPET; type: in vivo, rhesus macaque monkey; conditions: DMI block of NET
Excerpt: To assess the ability of [^18F]4F-MHPG to serve an additional clinical role as a marker of adrenergic tumors such as neuroblastoma and pheochromocytoma, data were collected to examine the uptake of [^18F]4F-MHPG into the adrenal gland. In control studies, the adrenal glands took up sufficient [^18F]4F-MHPG to be visualized, especially on the right side of the transaxial images, which was better separated from the kidney than the contralateral adrenal gland. There was also significant uptake in the cortex of the kidney. The kinetics of [^18F]4F-MHPG in the adrenal gland are very similar to those seen in the heart. In the DMI block study above, the adrenal glands were scanned for 10 minutes following the 90 minute cardiac study.

[2] = 30 minutes after injection, n=5

Compound: N=C(N)NCCc1ccc(F)c(O)c1 [[^18F]4F-MHPG] [4-[^18F]fluoro-meta-hydroxy-phenethylguanidine]
- maximum percentage of the injected dose observed in the gastrointestinal tract (Biodistribution in rats): 12.6%
- Biodistribution, Adrenal (Biodistribution in rats; 5 min): 0.203 ± 0.083 % ID · kg/g
- Biodistribution, Blood (Biodistribution in rats; 5 min): 0.062 ± 0.004 % ID/g
- Biodistribution, Bone (Biodistribution in rats; 5 min): 0.060 ± 0.015 % ID/g
- Biodistribution, Brain (Biodistribution in rats; 5 min): 0.004 ± 0.001 % ID · kg/g
- Biodistribution, Eyeballs (Biodistribution in rats; 5 min): 0.039 ± 0.006 % ID · kg/g
- Biodistribution, Heart (Biodistribution in rats; 5 min): 0.746 ± 0.067 % ID · kg/g
- Biodistribution, Kidney (Biodistribution in rats; 5 min): 1.398 ± 0.530 % ID · kg/g
- Biodistribution, Liver (Biodistribution in rats; 5 min): 0.477 ± 0.110 % ID · kg/g
- Biodistribution, Lung (Biodistribution in rats; 5 min): 0.267 ± 0.045 % ID · kg/g
- Biodistribution, Muscle (Biodistribution in rats; 5 min): 0.019 ± 0.005 % ID/g
- Biodistribution, Pancreas (Biodistribution in rats; 5 min): 0.137 ± 0.024 % ID · kg/g
- Biodistribution, Spleen (Biodistribution in rats; 5 min): 0.268 ± 0.044 % ID · kg/g
- Biodistribution, Stomach (Biodistribution in rats; 5 min): 0.116 ± 0.021 % ID · kg/g
- Biodistribution, Ovary (Biodistribution in rats; 5 min): 0.194 ± 0.048 % ID · kg/g
- Biodistribution, Testes (Biodistribution in rats; 5 min): 0.018 ± 0.002 % ID · kg/g
- Biodistribution, Uterus (Biodistribution in rats; 5 min): 0.268 ± 0.044 % ID · kg/g
- Biodistribution, Adrenal (Biodistribution in rats; 30 min): 0.181 ± 0.069 % ID · kg/g
- Biodistribution, Blood (Biodistribution in rats; 30 min): 0.022 ± 0.003 % ID/g
- Biodistribution, Bone (Biodistribution in rats; 30 min): 0.039 ± 0.015 % ID/g
- Biodistribution, Brain (Biodistribution in rats; 30 min): 0.003 ± 0.000 % ID · kg/g
- Biodistribution, Eyeballs (Biodistribution in rats; 30 min): 0.040 ± 0.004 % ID · kg/g
- Biodistribution, Heart (Biodistribution in rats; 30 min): 0.602 ± 0.111 % ID · kg/g
- Biodistribution, Kidney (Biodistribution in rats; 30 min): 0.183 ± 0.055 % ID · kg/g
- Biodistribution, Liver (Biodistribution in rats; 30 min): 0.406 ± 0.071 % ID · kg/g
- Biodistribution, Lung (Biodistribution in rats; 30 min): 0.136 ± 0.032 % ID · kg/g
- Biodistribution, Muscle (Biodistribution in rats; 30 min): 0.025 ± 0.011 % ID/g
- Biodistribution, Pancreas (Biodistribution in rats; 30 min): 0.145 ± 0.021 % ID · kg/g
- Biodistribution, Spleen (Biodistribution in rats; 30 min): 0.262 ± 0.055 % ID · kg/g
- Biodistribution, Stomach (Biodistribution in rats; 30 min): 0.110 ± 0.004 % ID · kg/g
- Biodistribution, Ovary (Biodistribution in rats; 30 min): 0.171 ± 0.020 % ID · kg/g
- Biodistribution, Testes (Biodistribution in rats; 30 min): 0.010 ± 0.001 % ID · kg/g
- Biodistribution, Uterus (Biodistribution in rats; 30 min): 0.155 ± 0.001 % ID · kg/g
- tissue concentration, adrenal medulla (Biodistribution in rats; [2]): 0.54 ± 0.08 percentage of the injected dose per gram
- tissue concentration, blood (Biodistribution in rats; [2]): 0.07 ± 0.01 percentage of the injected dose per gram
- tissue concentration, left ventricle (Biodistribution in rats; [2]): 1.45 ± 0.13 percentage of the injected dose per gram
- tissue concentration, liver (Biodistribution in rats; [2]): 1.14 ± 0.16 percentage of the injected dose per gram
- tissue concentration, lung (Biodistribution in rats; [2]): 0.43 ± 0.08 percentage of the injected dose per gram
- tissue concentration, muscle (Biodistribution in rats; [2]): 0.07 ± 0.01 percentage of the injected dose per gram
- tissue concentration, spleen (Biodistribution in rats; [2]): 0.56 ± 0.10 percentage of the injected dose per gram
- Biodistribution, Adrenal (Biodistribution in rats; 60 min): 0.193 ± 0.053 % ID · kg/g
- Biodistribution, Blood (Biodistribution in rats; 60 min): 0.016 ± 0.002 % ID/g
- Biodistribution, Bone (Biodistribution in rats; 60 min): 0.027 ± 0.009 % ID/g
- Biodistribution, Brain (Biodistribution in rats; 60 min): 0.002 ± 0.000 % ID · kg/g
- Biodistribution, Eyeballs (Biodistribution in rats; 60 min): 0.041 ± 0.006 % ID · kg/g
- Biodistribution, Heart (Biodistribution in rats; 60 min): 0.526 ± 0.116 % ID · kg/g
- Biodistribution, Kidney (Biodistribution in rats; 60 min): 0.186 ± 0.090 % ID · kg/g
- Biodistribution, Liver (Biodistribution in rats; 60 min): 0.350 ± 0.077 % ID · kg/g
- Biodistribution, Lung (Biodistribution in rats; 60 min): 0.091 ± 0.015 % ID · kg/g
- Biodistribution, Muscle (Biodistribution in rats; 60 min): 0.016 ± 0.002 % ID/g
- Biodistribution, Pancreas (Biodistribution in rats; 60 min): 0.172 ± 0.042 % ID · kg/g
- Biodistribution, Spleen (Biodistribution in rats; 60 min): 0.253 ± 0.054 % ID · kg/g
- Biodistribution, Stomach (Biodistribution in rats; 60 min): 0.115 ± 0.029 % ID · kg/g
- Biodistribution, Ovary (Biodistribution in rats; 60 min): 0.142 ± 0.052 % ID · kg/g
- Biodistribution, Testes (Biodistribution in rats; 60 min): 0.008 ± 0.003 % ID · kg/g
- Biodistribution, Uterus (Biodistribution in rats; 60 min): 0.112 ± 0.046 % ID · kg/g
- Biodistribution, Adrenal (Biodistribution in rats; 120 min): 0.133 ± 0.021 % ID · kg/g
- Biodistribution, Blood (Biodistribution in rats; 120 min): 0.009 ± 0.001 % ID/g
- Biodistribution, Bone (Biodistribution in rats; 120 min): 0.016 ± 0.005 % ID/g
- Biodistribution, Brain (Biodistribution in rats; 120 min): 0.001 ± 0.001 % ID · kg/g
- Biodistribution, Eyeballs (Biodistribution in rats; 120 min): 0.026 ± 0.006 % ID · kg/g
- Biodistribution, Heart (Biodistribution in rats; 120 min): 0.347 ± 0.055 % ID · kg/g
- Biodistribution, Kidney (Biodistribution in rats; 120 min): 0.078 ± 0.024 % ID · kg/g
- Biodistribution, Liver (Biodistribution in rats; 120 min): 0.233 ± 0.049 % ID · kg/g
- Biodistribution, Lung (Biodistribution in rats; 120 min): 0.036 ± 0.006 % ID · kg/g
- Biodistribution, Muscle (Biodistribution in rats; 120 min): 0.015 ± 0.002 % ID/g
- Biodistribution, Pancreas (Biodistribution in rats; 120 min): 0.121 ± 0.016 % ID · kg/g
- Biodistribution, Spleen (Biodistribution in rats; 120 min): 0.235 ± 0.066 % ID · kg/g
- Biodistribution, Stomach (Biodistribution in rats; 120 min): 0.089 ± 0.019 % ID · kg/g
- Biodistribution, Ovary (Biodistribution in rats; 120 min): 0.129 ± 0.029 % ID · kg/g
- Biodistribution, Testes (Biodistribution in rats; 120 min): 0.004 ± 0.001 % ID · kg/g
- Biodistribution, Uterus (Biodistribution in rats; 120 min): 0.081 ± 0.006 % ID · kg/g
- metabolism in plasma [1]: rapidly metabolized
- uptake into the adrenal glands under DMI block (adrenal glands): No uptake; also recorded: completely absent
